These results are taken from ChEMBL document CHEMBL2331126, “Alkyl esters of gallic acid as anticancer agents: a review” (Eur J Med Chem, 2013).

SMILES strings stand for the structures. Values after ≈ are worked out from the molar mass of the structure shown.

Assay [1] has as its system HeLa. Put plainly: Cytotoxicity against human HeLa cells. It is filed as functional, cell-based.
Assay [2] in a line: Cytotoxicity against mouse WEHI231 cells. It is filed as functional, cell-based.
Assay [3] deals with L929. Briefly: Cytotoxicity against mouse L929 cells. Type of assay: functional, cell-based.
For assay [4], the system named is B16-F10. Put plainly: Cytotoxicity against mouse B16F10 cells. Type of assay: functional, cell-based.
Assay [5] has as its system MDA-MB-231. Put plainly: Cytotoxicity against human MDA-MB-231 cells. Type of assay: functional, cell-based.
In assay [6] the test system is CCRF-CEM. Put plainly: Cytotoxicity against human CEM cells. Type of assay: cell-based.
Assay [7] deals with HL-60. Briefly: Cytotoxicity against human HL60 cells. Type of assay: functional, cell-based.
The subject of assay [8] is L1210. Briefly: Cytotoxicity against mouse L1210 cells. It is filed as functional, cell-based.
In assay [9] the test system is P388-D1 (Mus musculus). Put plainly: Cytotoxicity against mouse P388D1 cells.
The subject of assay [10] is U-251. Briefly: Antimigratory activity against human U251 cells at 30 ug/ml after 8 hrs by wound closure assay. Type of assay: functional.
For assay [11], the system named is K562. Put plainly: Cytotoxicity against human K562 cells. Type of assay: functional, cell-based.
For assay [12], the target named is Disintegrin and metalloproteinase domain-containing protein 17 (Homo sapiens) (UniProt P78536). Briefly: Inhibition of ADAM17 alpha-secretase activity in human […] cells using amyloid beta precursor protein as substrate at 40 ug/ml after 24 hrs by fluorimetric analysis. It is filed as cell-based.
Chain of Disintegrin and metalloproteinase domain-containing protein 17 (Homo sapiens) (P78536 whole entry, the tested form may be a part): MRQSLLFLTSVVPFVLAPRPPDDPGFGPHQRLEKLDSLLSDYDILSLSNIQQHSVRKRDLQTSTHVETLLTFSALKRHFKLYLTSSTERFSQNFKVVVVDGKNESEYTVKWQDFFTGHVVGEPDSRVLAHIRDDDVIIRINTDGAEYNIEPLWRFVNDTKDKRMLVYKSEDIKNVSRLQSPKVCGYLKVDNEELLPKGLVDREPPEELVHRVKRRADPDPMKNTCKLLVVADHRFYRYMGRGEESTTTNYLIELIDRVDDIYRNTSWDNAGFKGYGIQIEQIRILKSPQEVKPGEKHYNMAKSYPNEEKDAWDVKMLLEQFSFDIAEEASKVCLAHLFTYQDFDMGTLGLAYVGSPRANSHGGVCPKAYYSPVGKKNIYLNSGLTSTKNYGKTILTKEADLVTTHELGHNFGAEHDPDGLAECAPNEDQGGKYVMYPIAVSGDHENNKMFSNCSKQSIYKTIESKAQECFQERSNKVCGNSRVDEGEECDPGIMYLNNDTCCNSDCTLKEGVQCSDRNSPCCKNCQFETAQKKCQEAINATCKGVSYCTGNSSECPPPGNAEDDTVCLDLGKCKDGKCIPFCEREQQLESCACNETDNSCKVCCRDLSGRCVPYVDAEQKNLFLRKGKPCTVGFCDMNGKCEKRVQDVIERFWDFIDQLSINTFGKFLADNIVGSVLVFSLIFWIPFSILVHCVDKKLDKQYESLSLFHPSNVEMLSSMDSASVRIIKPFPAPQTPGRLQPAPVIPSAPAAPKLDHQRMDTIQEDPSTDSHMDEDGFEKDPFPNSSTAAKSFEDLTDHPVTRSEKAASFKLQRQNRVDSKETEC
Assay [13] relates to K562. Briefly: Cytotoxicity against human imatinib-resistant K562 cells. It is filed as functional, cell-based.
In assay [14] the target is Disintegrin and metalloproteinase domain-containing protein 17 (Homo sapiens) (UniProt P78536). Briefly: Inhibition of ADAM17 alpha-secretase activity in human […] cells using amyloid beta precursor protein as substrate at 20 ug/ml after 24 hrs by fluorimetric analysis. It is filed as cell-based.
Assay [15] in a line: Cytotoxicity against rat dRLh-84 cells. Type of assay: functional, cell-based.
Assay [16] relates to A549. Put plainly: Cytotoxicity against human A549 cells. Type of assay: functional, cell-based.
Assay [17] in a line: Antimigratory activity against human U87 cells at 40 ug/ml after 8 hrs by wound closure assay. It is filed as functional, U-87MG ATCC.
In assay [18] the test system is KB. Put plainly: Cytotoxicity against human KB cells. It is filed as functional, cell-based.
Assay [19] in a line: Antimigratory activity against human U87 cells at 30 ug/ml after 8 hrs by wound closure assay. Type of assay: functional, U-87MG ATCC.
In assay [20] the test system is U-251. Briefly: Antimigratory activity against human U251 cells at 40 ug/ml after 8 hrs by wound closure assay. Type of assay: functional.
Assay [21] is described as follows: Cytotoxicity against rat endothelial cells. To be noted: Endothelial cell.
Assay [22] can be described thus: Cytotoxicity against human PLC/PRF/5 cells. Type of assay: functional, cell-based.
Assay [23] deals with Disintegrin and metalloproteinase domain-containing protein 17 (Homo sapiens) (UniProt P78536). Briefly: Inhibition of ADAM17 alpha-secretase activity in human […] cells using amyloid beta precursor protein as substrate at 30 ug/ml after 24 hrs by fluorimetric analysis. Type of assay: cell-based.
For assay [24], the system named is Calu-6. Briefly: Cytotoxicity against human Calu6 cells. It is filed as functional, cell-based.
Assay [25] in a line: Cytotoxicity against rat fibroblast cells. It is filed as cell-based.
Assay [26] can be described thus: Cytotoxicity against human HL60RG cells. It is filed as functional, cell-based.

What is called IC50 is the concentration at which inhibition is half-maximal. A lower IC50 goes with greater potency. As to `CCCOC(=O)c1cc(O)c(O)c(O)c1` [PROPYL GALLATE], the IC50 in assay [1] was 800 µM; in assay [2], 12 µM; in [3], 40 µM.
Consider `CCCCCCCCCCCCOC(=O)c1cc(O)c(O)c(O)c1` [DODECYL GALLATE], for which the IC50 in [4] came out at 48 µM; in assay [5], 1 µM; in assay [6], 47.4 µM; in assay [7], 33 µM; in assay [8], 10.9 µM; in assay [2], 1 µM. For the same compound, the IC50 in assay [3] is 1 µM.
By inhibition is commonly meant the change of the read-out against control, counted positive when it falls. For `O=C(O)c1cc(O)c(O)c(O)c1` [GALLIC ACID], the IC50 in assay [9] amounted to 282 µM; in assay [1], 358 µM; in [11], 33 µM; in assay [13] it was 4.75 µM; in [15] it was 364 µM; in assay [16], 100 µM. In addition, the IC50 in assay [7] is 300 µM; in [18] it was 13.2 µg/mL (≈ 77.6 µM); in assay [21] it was above 20 µg/mL; in assay [2], 40 µM; in assay [22], 387 µM; in assay [3] it was 250 µM. Moreover, the concentration for half-maximal inhibition (IC50) in assay [24] is 10 µM; in assay [25] it was above 20 µg/mL; in [26] it was 317 µM. In addition, the Activity in assay [10] is listed as 51%; in assay [17] it was 30%; in assay [19], 29%; in assay [20], 31%. For the same compound, the figures for the inhibition in assay [12], in assay [14] and in assay [23] were 38.9%, 47.9% and 43.5%, respectively.
Consider `CCCCCCCCOC(=O)c1cc(O)c(O)c(O)c1` [OCTYL_GALLATE], for which the IC50 was 45 µM in [4]; 50 µM in assay [6]; 22 µM in assay [8]; 1.5 µM in assay [2]; 1 µM in assay [3].
With `CCCCCCCCCCCCCCOC(=O)c1cc(O)c(O)c(O)c1` [TETRADECYL GALLATE], the figures for the IC50 in [4], in assay [6] and in assay [8] were 60 µM, above 50 µM and 8.5 µM, respectively.
Turning to `CCCCCCCCCCOC(=O)c1cc(O)c(O)c(O)c1` [DECYL GALLATE], the IC50 in [4] was found to be 82 µM; in [6], 9.8 µM; in assay [8], 12.2 µM.
